Where “and” joins values, the source holds several entries; their conditions need not be identical. Identical values can stand only once. Toxic doses and inconclusive results are not listed.
System: P388 leukemia ip, CD2F1 mice, survival T/C
Experiment: NCI In Vivo Anticancer Drug Screen. Data for tumor model P388 Leukemia (intraperitoneal) in CD2F1 (CDF1) mice
Conditions: endpoint: median survival time, higher = longer survival
Procedure, shortened: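 Mice carrying the transplanted tumor received test compound or vehicle. Survival was recorded in each group, and the value is the treated-group measurement divided by that of the vehicle-treated control group.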

CC(C)NC(=O)OCc1c(COC(=O)NC(C)C)c(-c2ccc(Cl)c(Cl)c2)n2c1CCC2
T/C (dose: 0.58 mg/kg/injection, schedule: Q01DX009 (ip), vehicle: saline with Tween-80): 112 % of control | T/C (dose: 1.17 mg/kg/injection, schedule: Q01DX009 (ip), vehicle: saline with Tween-80): 120 % of control | T/C (dose: 1.5 mg/kg/injection, schedule: Q01DX001 (ip), vehicle: other): 109 % of control | T/C (dose: 1.5 mg/kg/injection, schedule: Q01DX001 (iv), vehicle: other): 102 % of control | T/C (dose: 1.5 mg/kg/injection, schedule: Q01DX005 (ip), vehicle: other): 122 % of control | T/C (dose: 1.5 mg/kg/injection, schedule: Q01DX005 (iv), vehicle: other): 107 % of control | T/C (dose: 1.5 mg/kg/injection, schedule: Q01DX005 (oral), vehicle: other): 98 % of control | T/C (dose: 1.5 mg/kg/injection, schedule: Q01DX009 (oral), vehicle: other): 100 % of control | T/C (dose: 1.56 mg/kg/injection, schedule: Q01DX009 (ip), vehicle: distilled water + Tween-80): 122 % of control | T/C (dose: 2.34 mg/kg/injection, schedule: Q01DX009 (ip), vehicle: other): 151 % of control | T/C (dose: 2.34 mg/kg/injection, schedule: Q01DX009 (ip), vehicle: saline with Tween-80): 151 % of control | T/C (dose: 3.0 mg/kg/injection, schedule: Q01DX001 (ip), vehicle: other): 116 % of control | T/C (dose: 3.0 mg/kg/injection, schedule: Q01DX001 (iv), vehicle: other): 100 % of control | T/C (dose: 3.0 mg/kg/injection, schedule: Q01DX001 (oral), vehicle: other): 98 % of control | T/C (dose: 3.0 mg/kg/injection, schedule: Q01DX005 (iv), vehicle: other): 108 % of control | T/C (dose: 3.0 mg/kg/injection, schedule: Q01DX005 (oral), vehicle: other): 100 % of control | T/C (dose: 3.0 mg/kg/injection, schedule: Q01DX009 (oral), vehicle: other): 100 % of control | T/C (dose: 3.13 mg/kg/injection, schedule: Q01DX009 (ip), vehicle: distilled water + Tween-80): 117 % of control | T/C (dose: 4.69 mg/kg/injection, schedule: Q01DX009 (ip), vehicle: other): 154 % of control | T/C (dose: 4.69 mg/kg/injection, schedule: Q01DX009 (ip), vehicle: saline with Tween-80): 150 % of control and 153 % of control | T/C (dose: 6.0 mg/kg/injection, schedule: Q01DX001 (iv), vehicle: other): 104 % of control | T/C (dose: 6.0 mg/kg/injection, schedule: Q01DX001 (oral), vehicle: other): 99 % of control | T/C (dose: 6.0 mg/kg/injection, schedule: Q01DX005 (iv), vehicle: other): 114 % of control | T/C (dose: 6.0 mg/kg/injection, schedule: Q01DX005 (oral), vehicle: other): 98 % of control | T/C (dose: 6.0 mg/kg/injection, schedule: Q01DX009 (ip), vehicle: other): 152 % of control | T/C (dose: 6.0 mg/kg/injection, schedule: Q01DX009 (oral), vehicle: other): 100 % of control | T/C (dose: 6.25 mg/kg/injection, schedule: Q01DX005 (ip), vehicle: Klucel (hydroxypropylcellulose) (HPC)): 164 % of control and 168 % of control | T/C (dose: 6.25 mg/kg/injection, schedule: Q01DX005 (ip), vehicle: other): 164 % of control | T/C (dose: 6.25 mg/kg/injection, schedule: Q01DX005 (ip), vehicle: saline with Tween-80): 151 % of control | T/C (dose: 6.25 mg/kg/injection, schedule: Q01DX009 (ip), vehicle: other): 155 % of control and 160 % of control | T/C (dose: 6.25 mg/kg/injection, schedule: Q01DX009 (ip), vehicle: saline with Tween-80): 158 % of control | T/C (dose: 6.25 mg/kg/injection, schedule: Q01DX009 (oral), vehicle: distilled water + Tween-80): 97 % of control | T/C (dose: 7.5 mg/kg/injection, schedule: Q01DX005 (ip), vehicle: saline with Tween-80): 118 % of control | T/C (dose: 9.38 mg/kg/injection, schedule: Q01DX009 (ip), vehicle: other): 154 % of control and 198 % of control | T/C (dose: 9.38 mg/kg/injection, schedule: Q01DX009 (ip), vehicle: saline with Tween-80): 157 % of control | T/C (dose: 12.0 mg/kg/injection, schedule: Q01DX001 (iv), vehicle: other): 113 % of control | T/C (dose: 12.0 mg/kg/injection, schedule: Q01DX001 (oral), vehicle: other): 100 % of control | T/C (dose: 12.0 mg/kg/injection, schedule: Q01DX005 (ip), vehicle: other): 153 % of control | T/C (dose: 12.0 mg/kg/injection, schedule: Q01DX005 (oral), vehicle: other): 100 % of control | T/C (dose: 12.0 mg/kg/injection, schedule: Q01DX009 (ip), vehicle: other): 169 % of control | T/C (dose: 12.0 mg/kg/injection, schedule: Q01DX009 (oral), vehicle: other): 102 % of control | T/C (dose: 12.5 mg/kg/injection, schedule: Q01DX005 (ip), vehicle: Klucel (hydroxypropylcellulose) (HPC)): 151 % of control and 160 % of control and 163 % of control | T/C (dose: 12.5 mg/kg/injection, schedule: Q01DX005 (ip), vehicle: other): 177 % of control | T/C (dose: 12.5 mg/kg/injection, schedule: Q01DX009 (ip), vehicle: other): 165 % of control and 167 % of control | T/C (dose: 12.5 mg/kg/injection, schedule: Q01DX009 (ip), vehicle: saline with Tween-80): 151 % of control | T/C (dose: 12.5 mg/kg/injection, schedule: Q01DX009 (oral), vehicle: distilled water + Tween-80): 103 % of control | T/C (dose: 18.75 mg/kg/injection, schedule: Q01DX009 (ip), vehicle: saline with Tween-80): 166 % of control and 167 % of control | T/C (dose: 24.0 mg/kg/injection, schedule: Q01DX001 (oral), vehicle: other): 100 % of control | T/C (dose: 24.0 mg/kg/injection, schedule: Q01DX005 (ip), vehicle: other): 178 % of control | T/C (dose: 24.0 mg/kg/injection, schedule: Q01DX005 (oral), vehicle: other): 102 % of control | T/C (dose: 24.0 mg/kg/injection, schedule: Q01DX009 (ip), vehicle: other): 184 % of control | T/C (dose: 24.0 mg/kg/injection, schedule: Q01DX009 (oral), vehicle: other): 102 % of control | T/C (dose: 25.0 mg/kg/injection, schedule: Q01DX005 (ip), vehicle: Klucel (hydroxypropylcellulose) (HPC)): 154 % of control and 168 % of control and 179 % of control | T/C (dose: 25.0 mg/kg/injection, schedule: Q01DX005 (ip), vehicle: other): 199 % of control | T/C (dose: 25.0 mg/kg/injection, schedule: Q01DX005 (ip), vehicle: saline with Tween-80): 162 % of control | T/C (dose: 25.0 mg/kg/injection, schedule: Q01DX009 (ip), vehicle: Klucel (hydroxypropylcellulose) (HPC)): 168 % of control | T/C (dose: 25.0 mg/kg/injection, schedule: Q01DX009 (ip), vehicle: other): 100 % of control | T/C (dose: 25.0 mg/kg/injection, schedule: Q01DX009 (ip), vehicle: saline with Tween-80): 166 % of control | T/C (dose: 25.0 mg/kg/injection, schedule: Q01DX009 (oral), vehicle: distilled water + Tween-80): 92 % of control | T/C (dose: 40.0 mg/kg/injection, schedule: Q01DX009 (ip), vehicle: Klucel (hydroxypropylcellulose) (HPC)): 155 % of control | T/C (dose: 48.0 mg/kg/injection, schedule: Q01DX001 (ip), vehicle: other): 168 % of control | T/C (dose: 48.0 mg/kg/injection, schedule: Q01DX001 (oral), vehicle: other): 100 % of control | T/C (dose: 48.0 mg/kg/injection, schedule: Q01DX005 (ip), vehicle: other): 174 % of control | T/C (dose: 48.0 mg/kg/injection, schedule: Q01DX005 (oral), vehicle: other): 107 % of control | T/C (dose: 48.0 mg/kg/injection, schedule: Q01DX009 (ip), vehicle: other): 106 % of control | T/C (dose: 48.0 mg/kg/injection, schedule: Q01DX009 (oral), vehicle: other): 119 % of control | T/C (dose: 50.0 mg/kg/injection, schedule: Q01DX005 (ip), vehicle: Klucel (hydroxypropylcellulose) (HPC)): 163 % of control and 205 % of control and 206 % of control | T/C (dose: 50.0 mg/kg/injection, schedule: Q01DX005 (ip), vehicle: other): 186 % of control | T/C (dose: 50.0 mg/kg/injection, schedule: Q01DX009 (ip), vehicle: Klucel (hydroxypropylcellulose) (HPC)): 239 % of control | T/C (dose: 50.0 mg/kg/injection, schedule: Q01DX009 (ip), vehicle: saline with Tween-80): 187 % of control | T/C (dose: 50.0 mg/kg/injection, schedule: Q01DX009 (oral), vehicle: distilled water + Tween-80): 110 % of control | T/C (dose: 60.0 mg/kg/injection, schedule: Q01DX005 (ip), vehicle: saline with Tween-80): 151 % of control | T/C (dose: 100.0 mg/kg/injection, schedule: Q01DX005 (ip), vehicle: saline with Tween-80): 90 % of control | T/C (dose: 100.0 mg/kg/injection, schedule: Q01DX009 (ip), vehicle: distilled water + Tween-80): 113 % of control | T/C (dose: 100.0 mg/kg/injection, schedule: Q01DX009 (ip), vehicle: saline with Tween-80): 177 % of control | T/C (dose: 100.0 mg/kg/injection, schedule: Q01DX009 (oral), vehicle: distilled water + Tween-80): 97 % of control | T/C (dose: 200.0 mg/kg/injection, schedule: Q01DX005 (ip), vehicle: distilled water + Tween-80): 104 % of control | T/C (dose: 200.0 mg/kg/injection, schedule: Q01DX009 (oral), vehicle: distilled water + Tween-80): 111 % of control

— PubChem BioAssay AID330 (DTP/NCI, 2004)
